Consider 43 compounds from patent publication US7312248B2, “Control of parasites in animals by the use of novel trifluoromethanesulfonanilide oxime ether derivatives” (Schering-Plough Animal Health Corporation, priority 2004, dated 2007).

Read-outs that look alike come from different tables or passages of the source.

In this series the test system is cat flea (Ctenocephalides felis). Kind of series: whole plant or invertebrate. The note with it: for mortality at 1.26 µg/cm2, 1.26 µg/cm2 / mortality at 1.26 µg/cm2: Ctenocephalides felis. The series is classed as in vivo. How it is done:
b) Ctenocephalides felis Adulticide Assay: C. felis Single Dose Screen
Mortality of fleas was the primary endpoint in the assay. Fleas were considered dead if they didn't move or were on their sides and unable to walk or right themselves. […] The concentration chosen (1.26 μg/cm^2) was higher than that known to kill 90% of cat fleas (LC90) using the reference compound, permethrin.
The test species was the cat flea (Ctenocephalides felis). The strain used was obtained from external suppliers as pupae and held in the laboratory under testing conditions until the adults had emerged. Fifteen (15) fleas were used in a minimum of four replicates against a single concentration level (approximately 60 fleas). The insects were selected to be in the adult life stage, aged between 3 and 7 days post emergence.
The compounds to be tested were supplied as solids and were prepared in acetone as described below prior to testing. Samples were stored in a refrigerator (5±1° C.) unless otherwise specified.
During the mortality testing, the temperature was maintained at 25±1° C. Humidity was maintained at 75±5%. The base (area=159 mm^2) of a 100 mL glass Erlenmeyer (conical) flask provided the treatment surface. Flasks were pretreated with Coatasil™ glass treatment to maximise bio-availability of test compounds by preventing them from binding to glass the surface. The base of the 100 mL Erlenmeyer flask was treated with 0.5 mL of test sample in acetone and gently swirled. This volume was sufficient to cover the base of the flask. Flasks were left to dry for 24 hours before flea exposure.
Adult cat fleas were placed into a sorting chamber, which allowed fleas to jump into the Erlenmeyer flasks. Fifteen (15) adult cat fleas were collected in each flask. The top of the flasks were then covered in Parafilm™ and small holes were made to allow gas exchange. A 0.5 mL volume of acetone as a solvent control was applied to the base of an Erlenmeyer flask and the testing proceeded in the same manner described above. Cat fleas in the treatment containers were held under testing conditions for 8, 24 and/or 48 hours. Mortality was recorded at 8, 24, 8 and 24, or 24 and 48 hours. Pooled 8, 24, 8 and 24, and 24 and 48 hour mortality data were converted to percentages and are summarized by Tables 14, 14A and 14B, below.

[1] abbreviates: 24 h, read-out: C. felis Mortality (%) 24 h, 24 h, Laboratory 1 A data.
[2] abbreviates: 8 h, read-out: Ctenocephalides felis Mortality (%) 8 h.
The mark [3] stands for this setting: 24 h, read-out: Ctenocephalides felis Mortality (%) 24 h.
Where [4] appears, read: 24 h, read-out: C. felis Mortality (%) 24 h, 24 h, Laboratory 2 B data.
Setting [5] is: 48 h, read-out: C. felis Mortality (%) 48 h, 48 h, Laboratory 2 B data.
Setting [6] is: 8 h, read-out: C. felis Mortality (%) 8 h, 8 h, Laboratory 2 B data.
Setting [7] is: 48 h, read-out: Ctenocephalides felis Mortality (%) 48 h.

Broadly, the mortality is the percentage killed. Turning to `C/C(=N\OCC#N)c1ccccc1NS(=O)(=O)C(F)(F)F` [Compound 27], under setting [1], the mortality at 1.26 µg/cm2, 1.26 µg/cm2 is 95%.

With `CCO/N=C(\C)c1cc(Cl)ccc1NS(=O)(=O)C(F)(F)F` [Compound 36], the mortality at 1.26 µg/cm2, 1.26 µg/cm2 under setting [1] was 100%.

For the compound `O=S(=O)(Nc1ccc(Cl)cc1-c1noc2c1CCCC2)C(F)(F)F` [Compound 294], the mortality at 1.26 µg/cm2 reads like this: under setting [2], 3%; under setting [3], 40%.

Regarding `CC/C(=N\Oc1ccc(C(F)(F)F)cc1)c1cc(Cl)ccc1NS(=O)(=O)C(F)(F)F` [Compound 145], the mortality at 1.26 µg/cm2, 1.26 µg/cm2 under setting [1] was determined as 9%.

On to `C/C(=N\OCCC(C)C)c1cc(Cl)ccc1NS(=O)(=O)C(F)(F)F` [Compound 246], for which the mortality at 1.26 µg/cm2, 1.26 µg/cm2 under setting [4] came to 98% and the mortality at 1.26 µg/cm2, 1.26 µg/cm2 under setting [5] turned out to be 100%.

Take `CC/C(=N\OC(C)c1ccc(Cl)cc1Cl)c1cc(Cl)ccc1NS(=O)(=O)C(F)(F)F` (stereo not shown) [Compound 259]: the mortality at 1.26 µg/cm2, 1.26 µg/cm2 is, setting by setting: under setting [6], 0%; under setting [4], 71%.

As for `CC/C(=N\OC(C)C1CC1)c1cc(Cl)ccc1NS(=O)(=O)C(F)(F)F` (stereo not shown) [Compound 254], the mortality at 1.26 µg/cm2, 1.26 µg/cm2 was found to be 84% under setting [4] and 100% under setting [5].

As to `CC/C(=N\OCC1CCCCC1)c1cc(Cl)ccc1N(COC(=O)C(C)(C)C)S(=O)(=O)C(F)(F)F` [Compound 304], the mortality at 1.26 µg/cm2 by setting is: under setting [3], 0%; under setting [7], 81%.

Turning to `O=S(=O)(Nc1ccc(Cl)cc1/C(=N/OCC1CCCCC1)c1ccccc1)C(F)(F)F` [Compound 180], the mortality at 1.26 µg/cm2, 1.26 µg/cm2 under setting [1] was 8%.

Take `CO/N=C(\C)c1cc(Br)ccc1NS(=O)(=O)C(F)(F)F` [Compound 52]: under setting [1], the mortality at 1.26 µg/cm2, 1.26 µg/cm2 amounted to 100%.

Consider `CC/C(=N\OCC#N)c1cc(Cl)ccc1NS(=O)(=O)C(F)(F)F` [Compound 153], for which, under setting [1], the mortality at 1.26 µg/cm2, 1.26 µg/cm2 was found to be 77%.

For the compound `C/C(=N\OCc1ccccn1)c1cc(Cl)ccc1NS(=O)(=O)C(F)(F)F` [Compound 48], under setting [1], the mortality at 1.26 µg/cm2, 1.26 µg/cm2 worked out at 94%.

Consider `CCO/N=C(\C)c1ccccc1NS(=O)(=O)C(F)(F)F` [Compound 29], for which, under setting [1], the mortality at 1.26 µg/cm2, 1.26 µg/cm2 is 92%.

As to `CCO/N=C(\CC)c1cc(Cl)ccc1NS(=O)(=O)C(F)(F)F` [Compound 37], the mortality at 1.26 µg/cm2, 1.26 µg/cm2 under setting [1] was found to be 29%.

In the case of `CC/C(=N\Oc1ccccc1C)c1cc(Cl)ccc1NS(=O)(=O)C(F)(F)F` [Compound 150], the mortality at 1.26 µg/cm2, 1.26 µg/cm2 under setting [1] was 48%.

Turning to `CO/N=C(\c1ccccc1)c1cc(Cl)ccc1NS(=O)(=O)C(F)(F)F` [Compound 232], the “C. felis Mortality (%) 24 h” value (24 h, Laboratory 2 B data) is given as 96^B %. The mortality at 1.26 µg/cm2, 1.26 µg/cm2 under setting [5] is 100%.

In the case of `CC/C(=N\OCCC(C)C)c1cc(Cl)ccc1NS(=O)(=O)C(F)(F)F` [Compound 248], under “24 h, Laboratory 2 B data”, the “C. felis Mortality (%) 24 h” value is given as 96^B %. Moreover, under “48 h, Laboratory 2 B data”, the “C. felis Mortality (%) 48 h” value amounted to 100%.

As for `CSCO/N=C(\C)c1cc(Cl)ccc1NS(=O)(=O)C(F)(F)F` [Compound 124], under setting [1], the mortality at 1.26 µg/cm2, 1.26 µg/cm2 was determined as 100%.

Take `CCCc1conc1-c1cc(Cl)ccc1NS(=O)(=O)C(F)(F)F` [Compound 295]: the mortality at 1.26 µg/cm2 turned out to be 0% under setting [2] and 44% under setting [3].

As for `O=S(=O)(Nc1ccc(Cl)cc1/C(=N/OC1CCCC1)c1ccccc1)C(F)(F)F` [Compound 162], the mortality at 1.26 µg/cm2, 1.26 µg/cm2 under setting [1] was found to be 14%.

Consider `C/C(=N\OC1CCCC1)c1ccc(C(F)(F)F)cc1NS(=O)(=O)C(F)(F)F` [Compound 239], for which the mortality at 1.26 µg/cm2, 1.26 µg/cm2 runs as follows: under setting [4], 86%; under setting [5], 100%.

Regarding `CCO/N=C(\C)c1cccc(OC)c1NS(=O)(=O)C(F)(F)F` [Compound 41], under setting [1], the mortality at 1.26 µg/cm2, 1.26 µg/cm2 stood at 45%.

Take `CCC(C)O/N=C(\C)c1cccc(C)c1NS(=O)(=O)C(F)(F)F` (stereo not shown) [Compound 58]: under setting [1], the mortality at 1.26 µg/cm2, 1.26 µg/cm2 was determined as 25%.

As for `C/C(=N\OC(C)c1ccc(Cl)cc1Cl)c1cc(Cl)ccc1NS(=O)(=O)C(F)(F)F` (stereo not shown) [Compound 258], the mortality at 1.26 µg/cm2, 1.26 µg/cm2 under setting [6] is 8% and the mortality at 1.26 µg/cm2, 1.26 µg/cm2 under setting [4] is 88%.

As to `CCCO/N=C(\c1ccccc1)c1cc(Cl)ccc1NS(=O)(=O)C(F)(F)F` [Compound 251], the “C. felis Mortality (%) 24 h” value (24 h, Laboratory 2 B data) is listed as 32^B %. The mortality at 1.26 µg/cm2, 1.26 µg/cm2 under setting [5] was 100%.

Take `CCC/C(=N\Oc1ccc(F)cc1)c1cc(Cl)ccc1NS(=O)(=O)C(F)(F)F` [Compound 168]: the mortality at 1.26 µg/cm2, 1.26 µg/cm2 under setting [1] was 36%.

Consider `CC/C(=N\OCC=C(C)C)c1cc(Cl)ccc1NS(=O)(=O)C(F)(F)F` [Compound 250], for which the mortality at 1.26 µg/cm2, 1.26 µg/cm2 amounted to 97% under setting [4] and 100% under setting [5].

As for `CCCC(=O)OCN(c1ccc(Cl)cc1/C(CC)=N/Oc1ccc(Cl)cc1)S(=O)(=O)C(F)(F)F` [Compound 309], the mortality at 1.26 µg/cm2 by setting is: under setting [2], 3%; under setting [3], 86%.

On to `CO/N=C(\C)c1cccc(C)c1NS(=O)(=O)C(F)(F)F` [Compound 42], for which the mortality at 1.26 µg/cm2, 1.26 µg/cm2 under setting [1] worked out at 72%.

For `C/C(=N\OC1C=CCCC1)c1ccc(C(F)(F)F)cc1NS(=O)(=O)C(F)(F)F` (stereo not shown) [Compound 238], the mortality at 1.26 µg/cm2, 1.26 µg/cm2 reads like this: under setting [4], 61%; under setting [5], 84%.

In the case of `C/C(=N\OCc1ccc(Cl)cc1)c1cc(Cl)ccc1N(C)S(=O)(=O)C(F)(F)F` [Compound 296], the mortality at 1.26 µg/cm2 worked out at 0% under setting [3] and 19% under setting [7].

As for `CCCC(=O)OCN(c1ccc(Cl)cc1/C(C)=N/Oc1ccc(F)cc1)S(=O)(=O)C(F)(F)F` [Compound 312], the mortality at 1.26 µg/cm2 was 11% under setting [2] and 89% under setting [3].

For the compound `C/C(=N\Oc1ccc(C)cc1)c1cc(Cl)ccc1NS(=O)(=O)C(F)(F)F` [Compound 141], the mortality at 1.26 µg/cm2, 1.26 µg/cm2 under setting [1] was 41%.

On to `CCOC(=O)N(c1ccc(Cl)cc1/C(CC)=N/OCc1ccc(Cl)cc1)S(=O)(=O)C(F)(F)F` [Compound 306], for which the mortality at 1.26 µg/cm2 runs as follows: (24 h, single concentration 1.26 μg/cm^2 on treated glass, adult fleas, Laboratory 2 B data, read-out: Ctenocephalides felis Mortality (%) 24 h) 0%; (48 h, single concentration 1.26 μg/cm^2 on treated glass, adult fleas, Laboratory 2 B data, read-out: Ctenocephalides felis Mortality (%) 48 h) 48%.

Regarding `C/C(=N\OC(C)C)c1cccc(C)c1NS(=O)(=O)C(F)(F)F` [Compound 57], the mortality at 1.26 µg/cm2, 1.26 µg/cm2 under setting [1] came to 77%.

With `CC/C(=N\OCC1CCCCC1)c1cc(Cl)ccc1N(C(C)=O)S(=O)(=O)C(F)(F)F` [Compound 311], the mortality at 1.26 µg/cm2 is, setting by setting: under setting [2], 14%; under setting [3], 76%.

Regarding `C/C(=N\OCC(C)C)c1ccc(C(F)(F)F)cc1NS(=O)(=O)C(F)(F)F` [Compound 240], the mortality at 1.26 µg/cm2, 1.26 µg/cm2 reads like this: under setting [4], 64%; under setting [5], 98%.

For `C/C(=N\Oc1ccc(F)cc1)c1cc(Cl)ccc1N(C)S(=O)(=O)C(F)(F)F` [Compound 298], the mortality at 1.26 µg/cm2 under setting [3] was found to be 1% and the mortality at 1.26 µg/cm2 under setting [7] is 12%.

Take `C/C(=N\Oc1ccc(C(F)(F)F)cc1)c1cc(Cl)ccc1NS(=O)(=O)C(F)(F)F` [Compound 143]: the mortality at 1.26 µg/cm2, 1.26 µg/cm2 under setting [1] is 7%.

For `CCO/N=C(\C)c1cccc(C)c1NS(=O)(=O)C(F)(F)F` [Compound 43], the mortality at 1.26 µg/cm2, 1.26 µg/cm2 under setting [1] was determined as 86%.

`O=S(=O)(Nc1ccc(Cl)cc1/C(=N/Oc1ccc(F)cc1)c1ccccc1)C(F)(F)F` [Compound 165, N-{4-chloro-2-[(4-fluorophenoxyimino)phenylmethyl]phenyl}trifluoromethanesulfonamide]: under setting [1], the mortality at 1.26 µg/cm2, 1.26 µg/cm2 is 21%.

In the case of `C/C(=N\OCC1CCCCC1)c1cc(Cl)ccc1NS(=O)(=O)C(F)(F)F` [Compound 173], the mortality at 1.26 µg/cm2, 1.26 µg/cm2 under setting [1] worked out at 96%.

With `O=S(=O)(Nc1ccc(Cl)cc1-c1cc(C2CCCCC2)on1)C(F)(F)F` [Compound 292], the mortality at 1.26 µg/cm2 by setting is: under setting [2], 15%; under setting [3], 92%.
